Key:
[1] = tested on: CSS.3_cut5 (DNA, aptamer) GGACGACGCCAGAAGTTTACGAGGATATGGTAACATAGTC; assay: BLI, steady state fit; settings: Na+ 123 mM (NaCl), K+ 3.5 mM, Ca2+ 2.5 mM, Mg2+ 0.7 mM; sISF, 10 mM HEPES, 30 °C
[2] = tested on: CSS.3_cut3 (DNA, aptamer) GGACGACGCCAGAAGTTTACGAGGATATGGTAACATAGTCGT; assay: BLI, steady state fit; settings: Na+ 123 mM (NaCl), K+ 3.5 mM, Ca2+ 2.5 mM, Mg2+ 0.7 mM; sISF, 10 mM HEPES, 30 °C

Work on `C[C@]12CCC(=O)C=C1CC[C@@H]1[C@@H]2[C@@H](O)C[C@@]2(C)[C@H]1CC[C@]2(O)C(=O)CO` yielded a KD [1] of 4200 nM and a KD [2] of 990 nM.

Source: article PMC10897929 (2024)
